{"source": "patent US4333933A", "about": "“Benzoguanamine derivatives, their production and pharmaceutical compositions containing the same” (Nippon Shinyaku Co., Ltd., priority 1980, dated 1982)", "system": "carrageenin edema", "assay": "Carrageenin edema inhibition activity (for rats)", "assay_type": "in vivo", "conditions": "Rattus norvegicus, ip; for inhibition in vivo at 50 mg/kg: 50 mg/kg i.p.; for inhibition in vivo at 100 mg/kg: 100 mg/kg i.p.", "text": "In Table 2 below, carrageenin edema inhibition activity (for rats) of representative compounds of the present invention is illustrated: […]", "data": [{"smiles": "Nc1nc(NC(=O)c2cccnc2)nc(-c2cc(F)ccc2Cl)n1", "note": "[Compound 24]", "values": [{"measurement": "inhibition in vivo at 50 mg/kg", "value": 46.5, "unit": "%"}, {"measurement": "inhibition in vivo at 100 mg/kg", "value": 45.1, "unit": "%"}]}, {"smiles": "Nc1nc(NC(=O)c2cccnc2)nc(-c2ccccc2I)n1", "note": "[Compound 9]", "values": [{"measurement": "inhibition in vivo at 50 mg/kg", "value": 38.1, "unit": "%"}, {"measurement": "inhibition in vivo at 100 mg/kg", "value": 40.5, "unit": "%"}]}, {"smiles": "Nc1nc(NC(=O)c2cccnc2)nc(-c2ccc(F)cc2)n1", "note": "[Compound 10]", "values": [{"measurement": "inhibition in vivo at 50 mg/kg", "value": 53.8, "unit": "%"}, {"measurement": "inhibition in vivo at 100 mg/kg", "value": 56.1, "unit": "%"}]}, {"smiles": "Nc1nc(NC(=O)c2cccnc2)nc(-c2cccc(Cl)c2)n1", "note": "[Compound 2]", "values": [{"measurement": "inhibition in vivo at 50 mg/kg", "value": 43.6, "unit": "%"}, {"measurement": "inhibition in vivo at 100 mg/kg", "value": 54.2, "unit": "%"}]}, {"smiles": "Nc1nc(NC(=O)c2cccnc2)nc(-c2cccc(F)c2)n1", "note": "[Compound 11]", "values": [{"measurement": "inhibition in vivo at 50 mg/kg", "value": 49, "unit": "%"}, {"measurement": "inhibition in vivo at 100 mg/kg", "value": 47.1, "unit": "%"}]}, {"smiles": "Nc1nc(NC(=O)c2cccnc2)nc(-c2ccc(Cl)cc2Br)n1", "note": "[Compound 28]", "values": [{"measurement": "inhibition in vivo at 50 mg/kg", "value": 42.8, "unit": "%"}, {"measurement": "inhibition in vivo at 100 mg/kg", "value": 48.4, "unit": "%"}]}, {"smiles": "Nc1nc(NC(=O)c2cccnc2)nc(-c2cc(F)ccc2Br)n1", "note": "[Compound 25]", "values": [{"measurement": "inhibition in vivo at 50 mg/kg", "value": 40.7, "unit": "%"}, {"measurement": "inhibition in vivo at 100 mg/kg", "value": 45.9, "unit": "%"}]}, {"smiles": "Nc1nc(NC(=O)c2cccnc2)nc(-c2cc(Cl)ccc2Cl)n1", "note": "[Compound 15]", "values": [{"measurement": "inhibition in vivo at 50 mg/kg", "value": 43.2, "unit": "%"}, {"measurement": "inhibition in vivo at 100 mg/kg", "value": 54.5, "unit": "%"}]}, {"smiles": "Nc1nc(NC(=O)c2cccnc2)nc(-c2cc(Cl)ccc2F)n1", "note": "[Compound 19]", "values": [{"measurement": "inhibition in vivo at 50 mg/kg", "value": 34.2, "unit": "%"}, {"measurement": "inhibition in vivo at 100 mg/kg", "value": 47.8, "unit": "%"}]}, {"smiles": "Nc1nc(NC(=O)c2cccnc2)nc(-c2cc(Br)ccc2Cl)n1", "note": "[Compound 29]", "values": [{"measurement": "inhibition in vivo at 50 mg/kg", "value": 38.7, "unit": "%"}, {"measurement": "inhibition in vivo at 100 mg/kg", "value": 49.2, "unit": "%"}]}, {"smiles": "Nc1nc(NC(=O)c2cccnc2)nc(-c2ccc(Cl)c(Cl)c2)n1", "note": "[Compound 13]", "values": [{"measurement": "inhibition in vivo at 50 mg/kg", "value": 40.9, "unit": "%"}, {"measurement": "inhibition in vivo at 100 mg/kg", "value": 49.2, "unit": "%"}]}, {"smiles": "Nc1nc(NC(=O)c2cccnc2)nc(-c2cc(Br)ccc2Br)n1", "note": "[Compound 21]", "values": [{"measurement": "inhibition in vivo at 50 mg/kg", "value": 35.6, "unit": "%"}, {"measurement": "inhibition in vivo at 100 mg/kg", "value": 40.6, "unit": "%"}]}, {"smiles": "Nc1nc(NC(=O)c2cccnc2)nc(-c2ccc(Cl)cc2F)n1", "note": "[Compound 20]", "values": [{"measurement": "inhibition in vivo at 50 mg/kg", "value": 42.7, "unit": "%"}, {"measurement": "inhibition in vivo at 100 mg/kg", "value": 50.8, "unit": "%"}]}, {"smiles": "Nc1nc(NC(=O)c2cccnc2)nc(-c2ccccc2Cl)n1", "note": "[Compound 3]", "values": [{"measurement": "inhibition in vivo at 50 mg/kg", "value": 37.1, "unit": "%"}, {"measurement": "inhibition in vivo at 100 mg/kg", "value": 45.5, "unit": "%"}]}, {"smiles": "Nc1nc(NC(=O)c2cccnc2)nc(-c2cccc(Br)c2)n1", "note": "[Compound 5]", "values": [{"measurement": "inhibition in vivo at 50 mg/kg", "value": 41.9, "unit": "%"}, {"measurement": "inhibition in vivo at 100 mg/kg", "value": 40.2, "unit": "%"}]}, {"smiles": "Nc1nc(NC(=O)c2cccnc2)nc(-c2ccc(Br)cc2)n1", "note": "[Compound 4]", "values": [{"measurement": "inhibition in vivo at 50 mg/kg", "value": 44.4, "unit": "%"}, {"measurement": "inhibition in vivo at 100 mg/kg", "value": 49.3, "unit": "%"}]}, {"smiles": "Nc1nc(NC(=O)c2cccnc2)nc(-c2cc(F)ccc2F)n1", "note": "[Compound 27]", "values": [{"measurement": "inhibition in vivo at 50 mg/kg", "value": 51.2, "unit": "%"}, {"measurement": "inhibition in vivo at 100 mg/kg", "value": 53.6, "unit": "%"}]}, {"smiles": "Nc1nc(NC(=O)c2cccnc2)nc(-c2ccc(Cl)cc2)n1", "note": "[Compound 1]", "values": [{"measurement": "inhibition in vivo at 50 mg/kg", "value": 56.8, "unit": "%"}, {"measurement": "inhibition in vivo at 100 mg/kg", "value": 57.2, "unit": "%"}]}]}
